Calls of active or inactive are those of the source. No cut-off for these calls is given here.

The subject of assay [1] is SARS-CoV-2. Kind of assay: Antiviral activity against SARS-CoV-2 NCCP43326 infected in African green monkey Vero cells assessed as inhibition of plaque formation at 1 to 25 ug/ml treated with compound for 1 hr post-infection followed by drug wash-out and measured at 72 hrs post-infection by crystal violet staining analysis. Format: functional. The settings on record: for Activity: Severe acute respiratory syndrome coronavirus 2, dose 1-25 µg/ml.

Assay [2] concerns SARS-CoV-2. Kind of assay: Antiviral activity against SARS-CoV-2 NCCP43326 infected in African green monkey Vero cells assessed as inhibition of plaque formation at 25 ug/ml treated with compound for 1 hr post-infection followed by drug wash-out and measured at 72 hrs post-infection by crystal violet staining analysis relative to control. The format is functional. The settings on record: Severe acute respiratory syndrome coronavirus 2, NCCP43326, Vero.

Assay [3] deals with SARS-CoV-2. Kind of assay: Antiviral activity against SARS-CoV-2 NCCP43326 infected in African green monkey Vero cells assessed as reduction in spike protein production at 1 to 25 ug/ml treated with compound for 1 hr post-infection followed by drug wash-out and measured at 72 hrs post-infection by ELISA. Format: functional, organism-based. To be noted: Severe acute respiratory syndrome coronavirus 2, dose 1-25 µg/ml. For orientation: An ELISA detects its analyte on a solid surface through an enzyme-linked reagent.

Assay [4] deals with SARS-CoV-2. As to the kind of experiment: Antiviral activity against SARS-CoV-2 NCCP43326 infected in African green monkey Vero cells assessed as reduction in spike protein production at 1 to 25 ug/ml cells were infected with virus for 1 hr followed by wash-out period and later treated with compound and measured after 72 hrs by ELISA. To be noted: Severe acute respiratory syndrome coronavirus 2, dose 1-25 µg/ml. Format: functional, organism-based.

Assay [5] has as its system SARS-CoV-2. Kind of assay: Antiviral activity against SARS-CoV-2 NCCP43326 infected in African green monkey Vero cells assessed as inhibition of plaque formation at 0.125 to 0.5 ug/ml treated with compound for 1 hr post-infection followed by drug wash-out and measured at 72 hrs post-infection by staining analysis. The format is functional, organism-based. The settings on record: Severe acute respiratory syndrome coronavirus 2, dose 0.125-0.5 µg/ml.

The term inhibition denotes the share of the control response that was lost under treatment. For `CCOC(=O)c1cc(O)c(O)c(O)c1` [ETHYLGALLATE], in the assay with SARS-CoV-2 [1], the result was Active. Also, the inhibition at 25 µg/mL with SARS-CoV-2 [2] was determined as 21.1%.

With `O=c1c(O)c(-c2ccc(O)c(O)c2)oc2cc(O)cc(O)c12` [QUERCETIN], the outcome in the assay with SARS-CoV-2 [1], with SARS-CoV-2 [3] and in the assay on SARS-CoV-2 [4] was Active. Besides, in the assay on SARS-CoV-2 [2], the inhibition at 25 µg/mL amounted to 67.2%.

Regarding `O=C(OC[C@H]1O[C@@H](OC(=O)c2cc(O)c(O)c(O)c2)[C@H](OC(=O)c2cc(O)c(O)c(O)c2)[C@@H](OC(=O)c2cc(O)c(O)c(O)c2)[C@@H]1OC(=O)c1cc(O)c(O)c(O)c1)c1cc(O)c(O)c(O)c1` [PENTAGALLOYL GLUCOSE], the outcome with SARS-CoV-2 [5], with SARS-CoV-2 [3] and in the assay on SARS-CoV-2 [4] was Active. In addition, in the assay with SARS-CoV-2 [1] (dose 1-25 µg/ml, at 1 to 25 µg/mL), the “inhibition (INH)” value was 100%. In addition, the inhibition at 25 µg/mL in the assay with SARS-CoV-2 [2] turned out to be 100%.

On to `C[C@H]1[C@H](C)CC[C@]2(C(=O)O)CC[C@]3(C)C(=CC[C@@H]4[C@@]5(C)CC[C@H](O)C(C)(C)[C@@H]5CC[C@]43C)[C@H]12` [URSOLIC ACID], for which the outcome in the assay with SARS-CoV-2 [1], in the assay with SARS-CoV-2 [3] and with SARS-CoV-2 [4] was Active. Also, in the assay with SARS-CoV-2 [2], the inhibition at 25 µg/mL came out at 78.3%.

The values above are taken from ChEMBL document CHEMBL4834476, “Potent antiviral activity of Agrimonia pilosa, Galla rhois, and their components against SARS-CoV-2” (2021).
